Data reported in ChEMBL document CHEMBL4507295 (2021).

What was measured:
[1] = biological target: Myosin-IIIa (Homo sapiens) (UniProt Q8NEV4); settings: Compound concentration 1000.0 nM
[2] = test system: Epidermal growth factor receptor (Homo sapiens), P00533 [L861Q]; settings: Compound concentration 1000.0 nM
[3] = biological target: Atypical kinase COQ8B, mitochondrial (Homo sapiens) (UniProt Q96D53); settings: Compound concentration 1000.0 nM
[4] = biological target: Membrane-associated tyrosine- and threonine-specific cdc2-inhibitory kinase (Homo sapiens) (UniProt Q99640); settings: Compound concentration 1000.0 nM
[5] = biological target: Interleukin-1 receptor-associated kinase 1 (Homo sapiens) (UniProt P51617); settings: Compound concentration 1000.0 nM
Interleukin-1 receptor-associated kinase 1 (Homo sapiens), sequence (P51617 whole entry, looked up): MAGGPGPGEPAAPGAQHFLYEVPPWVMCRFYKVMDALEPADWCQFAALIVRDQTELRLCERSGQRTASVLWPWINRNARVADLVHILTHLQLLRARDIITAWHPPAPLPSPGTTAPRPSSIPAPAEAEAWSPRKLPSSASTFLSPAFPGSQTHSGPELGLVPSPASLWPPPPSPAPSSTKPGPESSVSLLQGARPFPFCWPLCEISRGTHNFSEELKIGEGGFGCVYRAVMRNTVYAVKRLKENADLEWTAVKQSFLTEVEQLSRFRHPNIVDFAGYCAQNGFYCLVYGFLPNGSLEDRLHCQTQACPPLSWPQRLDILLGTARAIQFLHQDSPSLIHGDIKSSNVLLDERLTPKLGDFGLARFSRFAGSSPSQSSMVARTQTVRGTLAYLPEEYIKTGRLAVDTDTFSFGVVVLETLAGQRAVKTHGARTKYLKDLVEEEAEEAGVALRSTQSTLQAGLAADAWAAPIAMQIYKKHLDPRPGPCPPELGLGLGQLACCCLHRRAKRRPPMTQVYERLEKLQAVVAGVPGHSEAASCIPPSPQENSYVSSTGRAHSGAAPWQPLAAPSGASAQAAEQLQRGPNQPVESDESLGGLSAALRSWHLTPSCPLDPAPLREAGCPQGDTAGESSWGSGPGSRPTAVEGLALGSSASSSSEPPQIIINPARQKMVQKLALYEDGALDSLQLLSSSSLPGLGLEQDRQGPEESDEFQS

[6] = biological target: Phosphatidylinositol 4-kinase beta (Homo sapiens) (UniProt Q9UBF8); settings: Compound concentration 1000.0 nM
[7] = biological target: Mitogen-activated protein kinase kinase kinase 7 (Homo sapiens) (UniProt O43318); settings: Compound concentration 1000.0 nM
[8] = biological target: Phosphatidylinositol 4,5-bisphosphate 3-kinase catalytic subunit gamma isoform (Homo sapiens) (UniProt P48736); settings: Compound concentration 1000.0 nM
[9] = biological target: STE20/SPS1-related proline-alanine-rich protein kinase (Homo sapiens) (UniProt Q9UEW8); settings: Compound concentration 1000.0 nM
[10] = biological target: Serine/threonine-protein kinase PLK3 (Homo sapiens) (UniProt Q9H4B4); settings: Compound concentration 1000.0 nM
[11] = biological target: Maternal embryonic leucine zipper kinase (Homo sapiens) (UniProt Q14680); settings: Compound concentration 1000.0 nM
[12] = biological target: Ribosomal protein S6 kinase alpha-5 (Homo sapiens) (UniProt O75582); settings: Compound concentration 1000.0 nM
[13] = biological target: Serine/threonine-protein kinase LATS2 (Homo sapiens) (UniProt Q9NRM7); settings: Compound concentration 1000.0 nM
[14] = biological target: Leucine-rich repeat serine/threonine-protein kinase 2 (Homo sapiens) (UniProt Q5S007); settings: Compound concentration 1000.0 nM
Leucine-rich repeat serine/threonine-protein kinase 2 (Homo sapiens), sequence (Q5S007 whole entry): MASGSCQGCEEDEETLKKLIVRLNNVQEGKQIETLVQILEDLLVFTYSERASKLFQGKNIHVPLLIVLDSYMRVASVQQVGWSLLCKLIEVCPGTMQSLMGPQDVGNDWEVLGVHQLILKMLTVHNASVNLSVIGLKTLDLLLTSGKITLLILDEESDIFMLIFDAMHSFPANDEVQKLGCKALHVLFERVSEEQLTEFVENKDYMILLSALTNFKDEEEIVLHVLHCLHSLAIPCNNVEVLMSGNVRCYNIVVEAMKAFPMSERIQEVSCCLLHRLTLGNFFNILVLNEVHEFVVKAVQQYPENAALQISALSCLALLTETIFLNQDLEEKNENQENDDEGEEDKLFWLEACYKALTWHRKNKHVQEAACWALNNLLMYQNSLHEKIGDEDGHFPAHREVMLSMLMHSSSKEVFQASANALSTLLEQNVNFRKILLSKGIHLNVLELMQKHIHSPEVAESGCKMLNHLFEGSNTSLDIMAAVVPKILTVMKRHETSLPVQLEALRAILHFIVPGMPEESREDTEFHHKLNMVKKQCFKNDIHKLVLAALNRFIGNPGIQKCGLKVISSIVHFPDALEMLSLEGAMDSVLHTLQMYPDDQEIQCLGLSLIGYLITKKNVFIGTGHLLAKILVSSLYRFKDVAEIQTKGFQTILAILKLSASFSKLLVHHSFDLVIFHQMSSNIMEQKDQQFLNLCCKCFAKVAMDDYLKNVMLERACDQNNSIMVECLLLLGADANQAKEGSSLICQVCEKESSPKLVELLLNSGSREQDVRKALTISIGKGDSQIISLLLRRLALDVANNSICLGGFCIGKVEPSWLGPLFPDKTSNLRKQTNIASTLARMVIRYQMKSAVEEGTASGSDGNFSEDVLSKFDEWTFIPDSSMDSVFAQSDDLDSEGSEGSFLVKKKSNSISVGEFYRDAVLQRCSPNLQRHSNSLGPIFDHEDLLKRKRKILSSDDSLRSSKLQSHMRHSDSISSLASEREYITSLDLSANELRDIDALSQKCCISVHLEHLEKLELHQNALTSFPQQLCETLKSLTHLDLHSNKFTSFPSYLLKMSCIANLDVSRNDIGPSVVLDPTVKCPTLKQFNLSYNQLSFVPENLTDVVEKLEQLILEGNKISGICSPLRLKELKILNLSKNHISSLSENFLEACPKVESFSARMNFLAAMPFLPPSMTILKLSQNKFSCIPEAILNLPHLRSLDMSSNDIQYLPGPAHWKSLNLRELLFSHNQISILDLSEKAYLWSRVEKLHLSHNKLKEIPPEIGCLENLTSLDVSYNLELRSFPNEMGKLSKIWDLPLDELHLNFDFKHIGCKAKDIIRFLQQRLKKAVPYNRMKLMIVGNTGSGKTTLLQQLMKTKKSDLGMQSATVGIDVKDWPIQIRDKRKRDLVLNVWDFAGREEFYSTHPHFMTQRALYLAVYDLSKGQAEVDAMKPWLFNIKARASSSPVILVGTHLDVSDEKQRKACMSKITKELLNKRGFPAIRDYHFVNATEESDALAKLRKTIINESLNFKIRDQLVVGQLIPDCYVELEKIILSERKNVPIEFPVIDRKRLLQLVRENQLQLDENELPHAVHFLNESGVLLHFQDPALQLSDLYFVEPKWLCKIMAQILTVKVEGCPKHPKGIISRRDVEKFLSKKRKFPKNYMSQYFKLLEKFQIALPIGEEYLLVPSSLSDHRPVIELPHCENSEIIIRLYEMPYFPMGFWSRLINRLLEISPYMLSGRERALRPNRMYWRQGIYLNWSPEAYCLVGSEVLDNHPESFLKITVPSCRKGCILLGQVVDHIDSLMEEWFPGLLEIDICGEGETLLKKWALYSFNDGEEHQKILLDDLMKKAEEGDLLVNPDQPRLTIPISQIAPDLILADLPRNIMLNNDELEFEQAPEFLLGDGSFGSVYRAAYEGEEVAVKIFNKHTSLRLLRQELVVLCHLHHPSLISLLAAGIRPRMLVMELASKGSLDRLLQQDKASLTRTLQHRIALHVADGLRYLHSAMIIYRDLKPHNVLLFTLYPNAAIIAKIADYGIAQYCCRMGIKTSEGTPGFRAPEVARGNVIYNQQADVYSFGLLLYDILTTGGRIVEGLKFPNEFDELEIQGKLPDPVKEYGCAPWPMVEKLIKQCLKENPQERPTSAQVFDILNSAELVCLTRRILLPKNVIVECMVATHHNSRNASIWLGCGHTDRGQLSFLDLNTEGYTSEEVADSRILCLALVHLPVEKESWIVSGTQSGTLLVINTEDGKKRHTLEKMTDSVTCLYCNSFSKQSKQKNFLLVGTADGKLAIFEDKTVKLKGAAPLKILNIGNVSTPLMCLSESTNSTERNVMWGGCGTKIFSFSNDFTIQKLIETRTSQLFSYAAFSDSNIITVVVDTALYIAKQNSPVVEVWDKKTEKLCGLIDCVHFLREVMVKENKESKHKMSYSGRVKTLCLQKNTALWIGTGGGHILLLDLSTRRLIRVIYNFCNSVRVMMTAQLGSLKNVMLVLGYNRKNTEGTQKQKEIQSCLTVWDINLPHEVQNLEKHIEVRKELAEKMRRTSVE

[15] = biological target: Serine/threonine-protein kinase Nek7 (Homo sapiens) (UniProt Q8TDX7); settings: Compound concentration 1000.0 nM
Serine/threonine-protein kinase Nek7 (Homo sapiens), sequence (Q8TDX7 whole entry, looked up): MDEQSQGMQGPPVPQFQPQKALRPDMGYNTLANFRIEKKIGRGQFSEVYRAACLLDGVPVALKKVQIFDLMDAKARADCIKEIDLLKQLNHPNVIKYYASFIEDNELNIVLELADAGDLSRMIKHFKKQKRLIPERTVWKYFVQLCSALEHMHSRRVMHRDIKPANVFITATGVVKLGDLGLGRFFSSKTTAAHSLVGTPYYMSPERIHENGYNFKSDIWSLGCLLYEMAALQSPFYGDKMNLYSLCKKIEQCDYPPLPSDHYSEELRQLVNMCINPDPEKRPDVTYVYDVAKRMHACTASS

[16] = biological target: Serine/threonine-protein kinase PLK2 (Homo sapiens) (UniProt Q9NYY3); settings: Compound concentration 1000.0 nM
[17] = biological target: Serine/threonine-protein kinase tousled-like 2 (Homo sapiens) (UniProt Q86UE8); settings: Compound concentration 1000.0 nM
[18] = biological target: Serine/threonine-protein kinase SIK2 (Homo sapiens) (UniProt Q9H0K1); settings: Compound concentration 1000.0 nM
Serine/threonine-protein kinase SIK2 (Homo sapiens), sequence (Q9H0K1 whole entry, looked up): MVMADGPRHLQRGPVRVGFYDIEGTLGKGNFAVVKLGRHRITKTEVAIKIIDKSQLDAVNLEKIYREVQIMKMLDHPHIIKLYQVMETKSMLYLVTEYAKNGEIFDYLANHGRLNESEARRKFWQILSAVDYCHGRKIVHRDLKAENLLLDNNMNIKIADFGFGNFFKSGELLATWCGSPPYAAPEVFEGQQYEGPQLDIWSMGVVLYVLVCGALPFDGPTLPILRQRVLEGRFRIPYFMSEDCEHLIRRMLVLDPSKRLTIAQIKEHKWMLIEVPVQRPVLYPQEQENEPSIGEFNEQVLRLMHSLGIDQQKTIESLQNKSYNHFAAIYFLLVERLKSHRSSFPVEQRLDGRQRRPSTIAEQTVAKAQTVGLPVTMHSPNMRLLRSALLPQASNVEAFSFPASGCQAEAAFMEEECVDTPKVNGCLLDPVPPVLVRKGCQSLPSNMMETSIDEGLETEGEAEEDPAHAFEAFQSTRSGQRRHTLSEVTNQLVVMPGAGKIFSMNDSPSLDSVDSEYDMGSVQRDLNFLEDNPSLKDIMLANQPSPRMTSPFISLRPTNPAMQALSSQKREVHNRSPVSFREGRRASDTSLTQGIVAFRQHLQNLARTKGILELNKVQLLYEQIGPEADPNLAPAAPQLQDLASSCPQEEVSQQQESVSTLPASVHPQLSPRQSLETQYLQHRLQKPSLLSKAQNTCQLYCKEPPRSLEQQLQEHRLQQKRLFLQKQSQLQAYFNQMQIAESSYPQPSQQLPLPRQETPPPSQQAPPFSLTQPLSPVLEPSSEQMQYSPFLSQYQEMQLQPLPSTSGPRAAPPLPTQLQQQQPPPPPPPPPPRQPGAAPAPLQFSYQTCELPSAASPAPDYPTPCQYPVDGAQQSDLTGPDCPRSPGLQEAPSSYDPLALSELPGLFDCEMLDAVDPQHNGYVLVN

[19] = biological target: Beta-adrenergic receptor kinase 1 (Homo sapiens) (UniProt P25098); settings: Compound concentration 1000.0 nM
[20] = biological target: Ribosomal protein S6 kinase beta-1 (Homo sapiens) (UniProt P23443); settings: Compound concentration 1000.0 nM
[21] = biological target: Cyclin-dependent kinase 17 (Homo sapiens) (UniProt Q00537); settings: Compound concentration 1000.0 nM
[22] = biological target: Dual specificity mitogen-activated protein kinase kinase 1 (Homo sapiens) (UniProt Q02750); settings: Compound concentration 1000.0 nM
[23] = biological target: Cyclin-dependent kinase 3 (Homo sapiens) (UniProt Q00526); settings: Compound concentration 1000.0 nM
[24] = biological target: Fibroblast growth factor receptor 4 (Homo sapiens) (UniProt P22455); settings: Compound concentration 1000.0 nM
[25] = test system: Epidermal growth factor receptor (Homo sapiens), P00533 [UNDEFINED MUTATION]; settings: Compound concentration 1000.0 nM
[26] = biological target: Homeodomain-interacting protein kinase 4 (Homo sapiens) (UniProt Q8NE63); settings: Compound concentration 1000.0 nM
[27] = biological target: Wee1-like protein kinase 2 (Homo sapiens) (UniProt P0C1S8); settings: Compound concentration 1000.0 nM
[28] = biological target: Ribosomal protein S6 kinase alpha-4 (Homo sapiens) (UniProt O75676); settings: Compound concentration 1000.0 nM
[29] = biological target: Non-receptor tyrosine-protein kinase TNK1 (Homo sapiens) (UniProt Q13470); settings: Compound concentration 1000.0 nM
[30] = biological target: Histamine H3 receptor (Homo sapiens) (UniProt Q9Y5N1); settings: Compound concentration 10.0 uM
Histamine H3 receptor (Homo sapiens), sequence (Q9Y5N1 whole entry): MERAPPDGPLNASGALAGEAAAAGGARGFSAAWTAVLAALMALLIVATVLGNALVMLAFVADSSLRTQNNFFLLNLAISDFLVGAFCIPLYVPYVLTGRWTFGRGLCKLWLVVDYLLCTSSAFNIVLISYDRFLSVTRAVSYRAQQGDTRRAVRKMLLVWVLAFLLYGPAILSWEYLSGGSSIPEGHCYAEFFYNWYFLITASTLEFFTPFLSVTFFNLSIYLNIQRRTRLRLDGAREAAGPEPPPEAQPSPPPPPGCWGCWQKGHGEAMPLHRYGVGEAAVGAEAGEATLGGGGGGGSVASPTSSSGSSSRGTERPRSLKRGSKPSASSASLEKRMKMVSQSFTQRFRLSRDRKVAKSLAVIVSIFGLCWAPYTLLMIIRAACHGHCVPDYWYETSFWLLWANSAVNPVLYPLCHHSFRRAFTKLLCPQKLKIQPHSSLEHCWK

[31] = biological target: Serine/threonine-protein kinase Nek9 (Homo sapiens) (UniProt Q8TD19); settings: Compound concentration 1000.0 nM
[32] = biological target: Activin receptor type-1 (Homo sapiens) (UniProt Q04771); settings: Compound concentration 1000.0 nM
[33] = biological target: Protein kinase C epsilon type (Homo sapiens) (UniProt Q02156); settings: Compound concentration 1000.0 nM
[34] = biological target: Tyrosine-protein kinase ABL2 (Homo sapiens) (UniProt P42684); settings: Compound concentration 1000.0 nM
[35] = test system: Mast/stem cell growth factor receptor Kit (Homo sapiens), P10721 [V559D,T670I]; settings: Compound concentration 1000.0 nM
[36] = biological target: Serine/threonine-protein kinase MRCK alpha (Homo sapiens) (UniProt Q5VT25); settings: Compound concentration 1000.0 nM
Rattus norvegicus = species on record: Rattus norvegicus; settings: Compound concentration 10.0 uM
[37] = biological target: Ephrin type-A receptor 7 (Homo sapiens) (UniProt Q15375); settings: Compound concentration 1000.0 nM
[38] = test system: Epidermal growth factor receptor (Homo sapiens), P00533 [UNDEFINED MUTATION]; settings: Compound concentration 1000.0 nM; remark: listed apart in the source
[39] = biological target: Receptor-type tyrosine-protein kinase FLT3 (Homo sapiens) (UniProt P36888); settings: Compound concentration 1000.0 nM
[40] = biological target: Serine/threonine-protein kinase MAK (Homo sapiens) (UniProt P20794); settings: Compound concentration 1000.0 nM
[41] = biological target: Histamine H1 receptor (Homo sapiens) (UniProt P35367); settings: Compound concentration 10.0 uM
[42] = test system: Mast/stem cell growth factor receptor Kit (Homo sapiens), P10721 [V559D]; settings: Compound concentration 1000.0 nM
[43] = biological target: Serine/threonine-protein kinase pim-3 (Homo sapiens) (UniProt Q86V86); settings: Compound concentration 1000.0 nM
[44] = biological target: Ephrin type-A receptor 4 (Homo sapiens) (UniProt P54764); settings: Compound concentration 1000.0 nM

SMILES: N#CC1(c2ccccn2)CCN(Cc2cc(C(=O)N3CCCC3)c(=O)n3ccccc23)CC1
- residual activity [1]: 80%
- residual activity [2]: 79%
- residual activity [3]: 100%
- residual activity [4]: 79%
- residual activity [5]: 100%
- residual activity [6]: 100%
- residual activity [7]: 99%
- residual activity [8]: 75%
- residual activity [9]: 75%
- residual activity [10]: 100%
- residual activity [11]: 78%
- residual activity [12]: 90%
- residual activity [13]: 93%
- residual activity [14]: 100%
- residual activity [15]: 82%
- residual activity [16]: 100%
- residual activity [17]: 100%
- residual activity [18]: 100%
- residual activity [19]: 82%
- residual activity [20]: 34%
- residual activity [21]: 82%
- residual activity [22]: 100%
- residual activity [23]: 79%
- residual activity [24]: 90%
- residual activity [25]: 77%
- residual activity [26]: 67%
- residual activity [27]: 91%
- residual activity [28]: 79%
- residual activity [29]: 72%
- inhibition [30]: 11.2%
- residual activity [31]: 99%
- residual activity [32]: 83%
- residual activity [33]: 79%
- residual activity [34]: 100%
- residual activity [35]: 88%
- residual activity [36]: 84%
- inhibition (Rattus norvegicus): 46.5%
- residual activity [37]: 100%
- residual activity [38]: 81%
- residual activity [39]: 86%
- residual activity [40]: 93%
- inhibition [41]: 9.7%
- residual activity [42]: 100%
- residual activity [43]: 99%
- residual activity [44]: 89%

SMILES: N#CC1(c2ccccn2)CCN(Cc2cc(C(=O)O)c(=O)n3ccccc23)CC1 [MSD-M1PAM]
- residual activity [1]: 100%
- residual activity [2]: 100%
- residual activity [3]: 90%
- residual activity [4]: 100%
- residual activity [5]: 77%
- residual activity [6]: 74%
- residual activity [7]: 90%
- residual activity [8]: 91%
- residual activity [9]: 56%
- residual activity [10]: 85%
- residual activity [11]: 55%
- residual activity [12]: 83%
- residual activity [13]: 95%
- residual activity [14]: 65%
- residual activity [15]: 100%
- residual activity [16]: 80%
- residual activity [17]: 98%
- residual activity [18]: 100%
- residual activity [19]: 93%
- residual activity [20]: 96%
- residual activity [21]: 96%
- residual activity [22]: 95%
- residual activity [23]: 99%
- residual activity [24]: 100%
- residual activity [25]: 97%
- residual activity [26]: 95%
- residual activity [27]: 100%
- residual activity [28]: 94%
- residual activity [29]: 93%
- inhibition [30]: 4.08%
- residual activity [31]: 100%
- residual activity [32]: 96%
- residual activity [33]: 100%
- residual activity [34]: 100%
- residual activity [35]: 100%
- residual activity [36]: 100%
- inhibition (Rattus norvegicus): 7.88%
- residual activity [37]: 100%
- residual activity [38]: 96%
- residual activity [39]: 85%
- residual activity [40]: 97%
- inhibition [41]: 28.4%
- residual activity [42]: 100%
- residual activity [43]: 100%
- residual activity [44]: 79%
